Results from ChEMBL document CHEMBL4842374, “Natural inspired piperine-based sulfonamides and carboxylic acids as carbonic anhydrase inhibitors: Design, synthesis and biological evaluation” (Eur J Med Chem, 2021).

Tests used:
Carbonic anhydrase 12 = Carbonic anhydrase 12 (Homo sapiens, UniProt O43570); experiment: Inhibition of human CA12 measured after 15 mins by stopped flow carbon dioxide anhydrase assay
Carbonic anhydrase 2 = Carbonic anhydrase 2 (Homo sapiens, UniProt P00918); experiment: Inhibition of human CA2 measured after 15 mins by stopped flow carbon dioxide anhydrase assay
Carbonic anhydrase 1 = Carbonic anhydrase 1 (Homo sapiens, UniProt P00915); experiment: Inhibition of human CA1 measured after 15 mins by stopped flow carbon dioxide anhydrase assay
Carbonic anhydrase 1, sequence (P00915 whole entry): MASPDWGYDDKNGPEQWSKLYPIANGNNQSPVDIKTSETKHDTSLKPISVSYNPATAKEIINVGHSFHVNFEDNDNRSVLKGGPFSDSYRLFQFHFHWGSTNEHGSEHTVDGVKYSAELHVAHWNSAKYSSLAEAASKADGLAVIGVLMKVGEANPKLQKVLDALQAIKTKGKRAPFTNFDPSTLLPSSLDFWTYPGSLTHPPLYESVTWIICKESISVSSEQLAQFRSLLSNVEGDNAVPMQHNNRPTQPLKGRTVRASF

Carbonic anhydrase 9 = Carbonic anhydrase 9 (Homo sapiens, UniProt Q16790)
Description: Inhibition of human CA9 measured after 15 mins by stopped flow carbon dioxide anhydrase assay

MCF7 [1] = experiment: cells; type: functional, cell-based; conditions: Homo sapiens, MCF7, 48 h
Description: Antiproliferative activity against human MCF7 cells assessed as inhibition of cell proliferation measured after 48 hrs by MTT assay

MCF7 [2] = experiment: Induction of apoptosis in human MCF7 cells assessed as late apoptotic cells measured by AnnexinV/FITC staining based flow cytometry assay ( Rvb = 0.17%); type: functional
MCF7 [3] = experiment: Induction of apoptosis in human MCF7 cells assessed as early apoptotic cells measured by AnnexinV/FITC staining based flow cytometry assay ( Rvb = 0.52%); type: functional
MCF7 [4] = experiment: Induction of apoptosis in human MCF7 cells assessed as necrotic cells measured by AnnexinV/FITC staining based flow cytometry assay ( Rvb = 0.74%); type: functional

Carbonic anhydrase 12, sequence (O43570 whole entry): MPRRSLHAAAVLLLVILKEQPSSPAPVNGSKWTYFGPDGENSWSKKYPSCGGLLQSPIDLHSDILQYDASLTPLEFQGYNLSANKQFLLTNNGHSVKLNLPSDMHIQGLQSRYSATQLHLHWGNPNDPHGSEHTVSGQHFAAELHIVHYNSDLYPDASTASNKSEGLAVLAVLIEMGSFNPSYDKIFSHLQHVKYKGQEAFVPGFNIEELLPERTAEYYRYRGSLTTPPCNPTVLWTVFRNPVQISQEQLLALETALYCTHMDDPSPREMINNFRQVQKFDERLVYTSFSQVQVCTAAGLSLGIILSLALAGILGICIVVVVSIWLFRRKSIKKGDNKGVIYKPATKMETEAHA

| SMILES | Ki (Carbonic anhydrase 12) | Ki (Carbonic anhydrase 2) | Ki (Carbonic anhydrase 1) | Ki (Carbonic anhydrase 9) | further results |
| --- | --- | --- | --- | --- | --- |
| COC(=O)c1ccc(NC(=O)N/C=C/C=C/c2ccc3c(c2)OCO3)cc1 | > 100 µM | > 100 µM | > 100 µM | > 100 µM | – |
| O=C(N/C=C/C=C/c1ccc2c(c1)OCO2)Nc1ccc(C(=O)O)cc1 | – | – | > 100 µM | 16.1 µM | – |
| NS(=O)(=O)c1ccc(CCNC(=O)N/C=C/C=C/c2ccc3c(c2)OCO3)cc1 | – | – | – | 0.0682 µM | – |
| O=C(N/C=C/C=C/c1ccc2c(c1)OCO2)Nc1ccccc1C(=O)O | – | – | > 100 µM | 30.3 µM | – |
| Cc1ccc(NC(=O)N/C=C/C=C/c2ccc3c(c2)OCO3)cc1S(N)(=O)=O | – | – | – | 0.903 µM | – |
| NS(=O)(=O)c1ccccc1NC(=O)N/C=C/C=C/c1ccc2c(c1)OCO2 | – | – | – | 0.739 µM | – |
| O=C(N/C=C/C=C/c1ccc2c(c1)OCO2)Nc1ccc(S(=O)(=O)Nc2nccs2)cc1 | > 100 µM | > 100 µM | > 100 µM | > 100 µM | – |
| O=C(N/C=C/C=C/c1ccc2c(c1)OCO2)Nc1cccc(C(=O)O)c1 | – | – | > 100 µM | 24.8 µM | – |
| CC(=O)c1ccc(NC(=O)N/C=C/C=C/c2ccc3c(c2)OCO3)cc1 | > 100 µM | > 100 µM | > 100 µM | > 100 µM | – |
| NS(=O)(=O)c1cccc(NC(=O)N/C=C/C=C/c2ccc3c(c2)OCO3)c1 | – | – | – | 0.319 µM | – |
| COC(=O)c1cccc(NC(=O)N/C=C/C=C/c2ccc3c(c2)OCO3)c1 | > 100 µM | > 100 µM | > 100 µM | > 100 µM | – |
| NS(=O)(=O)c1ccc(NC(=O)N/C=C/C=C/c2ccc3c(c2)OCO3)cc1 | – | – | – | 0.0387 µM | IC50 (MCF7 [1]): 2.17 µM; Activity (MCF7 [2]): 23.14%; Activity (MCF7 [3]): 1.91%; Activity (MCF7 [4]): 14.19% |
